Consider 7 compounds from ChEMBL document CHEMBL5303573, “Mapping human microbiome drug metabolism by gut bacteria and their genes” (Nature, 2019).

A short description of data set [1]: The drug is tested on Eubacterium rectale strain: ATCC33656 for biotransformation. The drug concentrations were measured before and after a 12-h incubation by liquid-chromatography-coupled mass spectrometry (LC–MS). The following applies: agathobacter rectalis, 2 µM.
Data set [2] can be described thus: The drug is tested on Enterobacter cancerogenus strain: ATCC35316 for biotransformation. The drug concentrations were measured before and after a 12-h incubation by liquid-chromatography-coupled mass spectrometry (LC–MS). The following applies: 2 µM.
The nature of data set [3]: The drug is tested on Ruminococcus torques strain: ATCC27756 for biotransformation. The drug concentrations were measured before and after a 12-h incubation by liquid-chromatography-coupled mass spectrometry (LC–MS). More on the design: dose 2 uM, timepoint 0 vs 12 hours. Particulars: 2 µM. It counts as ADME.
Data set [4] can be described thus: The drug is tested on Clostridium ramosum strain: DSM1402 for biotransformation. The drug concentrations were measured before and after a 12-h incubation by liquid-chromatography-coupled mass spectrometry (LC–MS). Particulars: thomasclavelia ramosa, 2 µM.
The nature of data set [5]: The drug is tested on Blautia luti strain: DSM14534 for biotransformation. The drug concentrations were measured before and after a 12-h incubation by liquid-chromatography-coupled mass spectrometry (LC–MS). More on the design: dose 2 uM, timepoint 0 vs 12 hours. Particulars: 2 µM. It counts as ADME.
The nature of data set [6]: The drug is tested on Ruminococcus gnavus strain: ATCC29149 for biotransformation. The drug concentrations were measured before and after a 12-h incubation by liquid-chromatography-coupled mass spectrometry (LC–MS). The following applies: mediterraneibacter gnavus, 2 µM.
The conditions of data set [7]: anaerostipes sp., 12 h, 2 µM.
Description: The drug is tested on Anaerostipes sp. strain: fecal isolate for biotransformation. The drug concentrations were measured before and after a 12-h incubation by liquid-chromatography-coupled mass spectrometry (LC–MS)
The nature of data set [8]: The drug is tested on Bacteroides fragilis strain: HMW615 for biotransformation. The drug concentrations were measured before and after a 12-h incubation by liquid-chromatography-coupled mass spectrometry (LC–MS). The following applies: 2 µM.
Data set [9] in a line: The drug is tested on Anaerococcus hydrogenalis strain: DSM7454 for biotransformation. The drug concentrations were measured before and after a 12-h incubation by liquid-chromatography-coupled mass spectrometry (LC–MS). Particulars: 2 µM.
Data set [10] is described as follows: The drug is tested on Bifidobacterium ruminantium strain: fecal isolate for biotransformation. The drug concentrations were measured before and after a 12-h incubation by liquid-chromatography-coupled mass spectrometry (LC–MS). Particulars: 2 µM.
Data set [11] in a line: The drug is tested on Bacteroides dorei strain: DSM17855 for biotransformation. The drug concentrations were measured before and after a 12-h incubation by liquid-chromatography-coupled mass spectrometry (LC–MS). Particulars: phocaeicola dorei, 2 µM.
Data set [12] can be described thus: The drug is tested on Bacteroides finegoldii strain: DSM17565 for biotransformation. The drug concentrations were measured before and after a 12-h incubation by liquid-chromatography-coupled mass spectrometry (LC–MS). Particulars: 2 µM.
Data set [13] in a line: The drug is tested on Collinsella aerofaciens strain: ATCC25986 for biotransformation. The drug concentrations were measured before and after a 12-h incubation by liquid-chromatography-coupled mass spectrometry (LC–MS). Particulars: 2 µM.
A short description of data set [14]: The drug is tested on Bacteroides caccae strain: ATCC43185 for biotransformation. The drug concentrations were measured before and after a 12-h incubation by liquid-chromatography-coupled mass spectrometry (LC–MS). Particulars: 2 µM.
For data set [15] the following is noted: enterocloster bolteae, 12 h, 2 µM.
Description: The drug is tested on Clostridium bolteae strain: ATCCBAA-613 for biotransformation. The drug concentrations were measured before and after a 12-h incubation by liquid-chromatography-coupled mass spectrometry (LC–MS)
Data set [16] can be described thus: The drug is tested on Bacteroides sp. WH2 strain: WH2 for biotransformation. The drug concentrations were measured before and after a 12-h incubation by liquid-chromatography-coupled mass spectrometry (LC–MS). Particulars: bacteroides sp. wh2, 12 h, 2 µM.
The nature of data set [17]: The drug is tested on Coprococcus comes strain: ATCC27758 for biotransformation. The drug concentrations were measured before and after a 12-h incubation by liquid-chromatography-coupled mass spectrometry (LC–MS). It counts as ADME. More on the design: dose 2 uM, timepoint 0 vs 12 hours. The following applies: 2 µM.
The nature of data set [18]: The drug is tested on Bacteroides fragilis strain: HMW610 for biotransformation. The drug concentrations were measured before and after a 12-h incubation by liquid-chromatography-coupled mass spectrometry (LC–MS). Particulars: 2 µM.
The nature of data set [19]: The drug is tested on Edwardsiella tarda strain: ATCC23685 for biotransformation. The drug concentrations were measured before and after a 12-h incubation by liquid-chromatography-coupled mass spectrometry (LC–MS). The following applies: 2 µM.

As to `CNCC[C@H](Oc1cccc2ccccc12)c1cccs1` [DULOXETINE], the “Bacterial Biotransformation” value is on record as “Compound NOT metabolized” in data set [1]; “Compound metabolized” in [2]; “Compound NOT metabolized” in [3]; “Compound NOT metabolized” in data set [4]; “Compound NOT metabolized” in [5]; “Compound NOT metabolized” in data set [6]. The “Bacterial Biotransformation” value is “Compound NOT metabolized” in data set [7]; “Compound NOT metabolized” in data set [8]; “Compound NOT metabolized” in [9]; “Compound metabolized” in data set [10]; “Compound metabolized” in data set [11]; “Compound NOT metabolized” in [12]. Also, the “Bacterial Biotransformation” value is “Compound metabolized” in data set [13], “Compound NOT metabolized” in data set [14] and “Compound NOT metabolized” in data set [15].
As to `C=CCN1CC[C@]23c4c5ccc(O)c4O[C@H]2C(=O)CC[C@@]3(O)[C@H]1C5` [NALOXONE], the “Bacterial Biotransformation” value is on record as “Compound NOT metabolized” in data set [16]; “Compound NOT metabolized” in data set [2]; “Compound metabolized” in data set [3]; “Compound NOT metabolized” in data set [4]; “Compound NOT metabolized” in data set [5]; “Compound NOT metabolized” in [17]. The “Bacterial Biotransformation” value in data set [18] is listed as “Compound metabolized”; in data set [6], “Compound NOT metabolized”; in data set [7], “Compound NOT metabolized”; in [9] it was “Compound NOT metabolized”; in [19], “Compound NOT metabolized”; in data set [10], “Compound NOT metabolized”. The “Bacterial Biotransformation” value in data set [11] is recorded as “Compound metabolized”; in [12] it was “Compound NOT metabolized”; in data set [13] it was “Compound NOT metabolized”; in data set [15], “Compound NOT metabolized”.
Consider `COc1ccc(Cc2nccc3cc(OC)c(OC)cc23)cc1OC` [PAPAVERINE], for which the “Bacterial Biotransformation” value in data set [16], in data set [1], in [2], in data set [3], in data set [4] and in data set [5] was “Compound NOT metabolized” throughout. Also, the “Bacterial Biotransformation” value in data set [17], in data set [6], in [7], in data set [9], in [19] and in [10] was “Compound NOT metabolized” in each case. In addition, the “Bacterial Biotransformation” value in data set [11] is on record as “Compound metabolized”; in data set [12], “Compound NOT metabolized”; in [13], “Compound NOT metabolized”; in data set [14], “Compound NOT metabolized”; in [15], “Compound NOT metabolized”.
For `CC(CCc1ccccc1)NCC(O)c1ccc(O)c(C(N)=O)c1` (stereo not given) [LABETALOL], the “Bacterial Biotransformation” value in data set [16], in data set [1], in data set [2], in [3], in data set [4] and in [5] was “Compound NOT metabolized” in each case. The “Bacterial Biotransformation” value in data set [17], in [18], in [6], in data set [7], in [8] and in [9] was “Compound NOT metabolized” in each case. The “Bacterial Biotransformation” value in data set [19], in [11], in data set [12], in data set [13], in data set [14] and in data set [15] was “Compound NOT metabolized” throughout.
`CN(C)CC(c1ccc(O)cc1)C1(O)CCCCC1.O=C(O)CCC(=O)O` (stereo not given) [DESVENLAFAXINE SUCCINATE]: the “Bacterial Biotransformation” value in data set [16], in data set [2], in data set [3], in data set [4], in data set [5] and in data set [17] was “Compound NOT metabolized” each time. In addition, the “Bacterial Biotransformation” value in data set [18], in data set [6], in data set [7], in data set [9], in data set [19] and in [11] was “Compound NOT metabolized” in each case. Besides, the “Bacterial Biotransformation” value in data set [12], in data set [13], in [14] and in data set [15] was “Compound NOT metabolized” each time.
In the case of `CN1CCC(=C2c3ccccc3CC(=O)c3sccc32)CC1.O=C(O)/C=C/C(=O)O` [KETOTIFEN FUMARATE], the “Bacterial Biotransformation” value in data set [16], in data set [1], in [2], in data set [3], in data set [4] and in data set [5] was “Compound NOT metabolized” in each case. Besides, the “Bacterial Biotransformation” value in data set [17], in [18], in [6], in data set [7], in data set [9] and in data set [19] was “Compound NOT metabolized” in each case. The “Bacterial Biotransformation” value in data set [10], in [11], in data set [12], in data set [13] and in data set [14] was “Compound NOT metabolized” each time.
In the case of `CC(C)N(CCC(C(N)=O)(c1ccccc1)c1ccccn1)C(C)C.O=P(O)(O)O` (stereo not given) [DISOPYRAMIDE PHOSPHATE], the “Bacterial Biotransformation” value in data set [16], in data set [1], in [2], in [5], in data set [17] and in [18] was “Compound NOT metabolized” each time. The “Bacterial Biotransformation” value in data set [6], in data set [7], in [8], in [9], in data set [19] and in data set [11] was “Compound NOT metabolized” each time. Moreover, the “Bacterial Biotransformation” value in [12], in data set [13], in data set [14] and in data set [15] was “Compound NOT metabolized” in each case.
